Assay results: US11279687B2, “Compounds and compositions for the inhibition of NAMPT” (Valo Health, Inc., priority 2010, dated 2022)
Read-outs that look alike come from different tables or passages of the source.

Tests used:
NAMPT = NAMPT (Homo sapiens (Human), UniProt P43490); test: NAMPT biochemical inhibition assay (NMN quantified by mass spectrometry); conditions: NAMPT biochemical inhibition; read-out: Biochem IC50
A2780 cells = test: In-vitro cell proliferation assay (SRB), A2780 cells; format: cell-based; conditions: A2780 cells, 72 hours, SRB, read-out: A2780 IC50;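 note: viable cell number read as SRB absorbance, background from media-only wells subtracted, IC50 interpolated from percent inhibition at two bracketing compound concentrations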

Chain of NAMPT (P43490 whole entry): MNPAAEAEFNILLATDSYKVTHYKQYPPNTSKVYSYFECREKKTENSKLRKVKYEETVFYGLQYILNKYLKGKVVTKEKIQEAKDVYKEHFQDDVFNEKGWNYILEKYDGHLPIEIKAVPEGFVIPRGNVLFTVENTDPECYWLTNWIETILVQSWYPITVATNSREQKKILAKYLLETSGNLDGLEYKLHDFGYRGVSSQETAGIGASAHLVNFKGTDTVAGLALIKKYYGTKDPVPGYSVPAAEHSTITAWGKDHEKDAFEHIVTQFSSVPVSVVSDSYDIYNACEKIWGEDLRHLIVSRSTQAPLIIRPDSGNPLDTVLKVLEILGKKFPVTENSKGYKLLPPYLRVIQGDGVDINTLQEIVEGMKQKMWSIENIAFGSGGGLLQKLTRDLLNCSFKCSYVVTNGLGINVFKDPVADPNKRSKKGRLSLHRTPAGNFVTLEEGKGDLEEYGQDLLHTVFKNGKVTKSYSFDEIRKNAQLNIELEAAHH

SMILES	IC50 (NAMPT) [µM]	IC50 (A2780 cells; Homo sapiens, A2780, 72 h) [µM]	IC50 (A2780 cells) [µM]
O=C(NCc1cccnc1)Nc1ccc(S(=O)(=O)c2ccc(OC(F)(F)F)c(F)c2)cc1 [3-(4-{[3-fluoro-4-(trifluoromethoxy)benzene]sulfonyl}phenyl)-1-(pyridin-3-ylmethyl)urea]	0.0055	0.1 to 1	–
O=C(NCc1cccnc1)Nc1ccc(S(=O)(=O)c2ccc(C(F)(F)F)c(F)c2)cc1 [3-(4-{[3-fluoro-4-(trifluoromethyl)benzene]sulfonyl}phenyl)-1-(pyridin-3-ylmethyl)urea]	0.0041	0.1 to 1	–
O=C(NCc1cccnc1)Nc1ccc(S(=O)(=O)c2cc(F)cc(OCC(F)(F)F)c2)cc1 [3-(4-{[3-fluoro-5-(2,2,2-trifluoroethoxy)benzene]sulfonyl]phenyl)-1-(pyridin-3-ylmethyl)urea]	0.0011	–	0.0297
CC(C)COc1cc(F)cc(S(=O)(=O)c2ccc(NC(=O)NCc3cccnc3)cc2)c1 [3-(4-{[3-fluoro-5-(2-methylpropoxy)benzene]sulfonyl}phenyl)-1-(pyridin-3-ylmethyl)urea]	0.004	0.0564	–
O=C(NCc1cccnc1)Nc1ccc(S(=O)(=O)c2cc(F)cc(C(F)(F)F)c2)cc1 [3-(4-{[3-fluoro-5-(trifluoromethyl)benzene]sulfonyl[phenyl)-1-(pyridin-3-ylmethyl)urea]	0.0007	–	0.0576
Cc1cc(NS(=O)(=O)c2ccc(NC(=O)NCc3cccnc3)cc2)ccc1C(C)C [3-(4-{[3-methyl-4-(propan-2-yl)phenyl]sulfamoyl}phenyl)-1-(pyridin-3-ylmethyl)urea]	0.002	0.108	–
CCOCc1ccc(S(=O)(=O)c2ccc(NC(=O)NCc3cccnc3)cc2)cc1 [3-(4-{[4-(ethoxymethyl)benzene]sulfonyl[phenyl)-1-(pyridin-3-ylmethyl)urea]	0.001	0.1 to 1	–
CC(C)c1ccc(S(=O)(=O)c2ccc(NC(=O)NCc3cccnc3)cc2)cc1 [3-(4-{[4-(propan-2-yl)benzene]sulfonyl[phenyl)-1-(pyridin-3-ylmethyl)urea]	0.003	0.1 to 1	–
CC(C)Oc1ccc(S(=O)(=O)c2ccc(NC(=O)NCc3cccnc3)cc2)cc1 [3-(4-{[4-(propan-2-yloxy)benzene]sulfonyl[phenyl)-1-(pyridin-3-ylmethyl)urea]	0.0017	0.0291	–
O=C(NCc1cccnc1)Nc1ccc(S(=O)(=O)Nc2ccc(Cl)cc2OC(F)(F)F)cc1 [3-(4-{[4-chloro-2-(trifluoromethoxy)phenyl]sulfamoyl[phenyl)-1-(pyridin-3-ylmethyl)urea]	0.006	–	0.113
O=C(NCc1cccnc1)Nc1ccc(S(=O)(=O)c2ccc(Cl)c(C(F)(F)F)c2)cc1 [3-(4-{[4-chloro-3-(trifluoromethyl)benzene]sulfonyl}phenyl)-1-(pyridin-3-ylmethyl)urea]	0.005	0.167	–
O=C(NCc1cccnc1)Nc1ccc(S(=O)(=O)c2ccc(F)c(OCC(F)(F)F)c2)cc1 [3-(4-{[4-fluoro-3-(2,2,2-trifluoroethoxy)benzene]sulfonyl[phenyl)-1-(pyridin-3-ylmethyl)urea]	0.0021	–	0.0234
O=C(NCc1cccnc1)Nc1ccc(S(=O)(=O)c2ccc(F)c(C(F)(F)F)c2)cc1 [3-(4-{[4-fluoro-3-(trifluoromethyl)benzene]sulfonyl[phenyl)-1-(pyridin-3-ylmethyl)urea]	0.0015	–	0.0862
Cc1ccc(NS(=O)(=O)c2ccc(NC(=O)NCc3cccnc3)cc2)cc1C(F)(F)F [3-(4-{[4-methyl-3-(trifluoromethyl)phenyl]sulfamoyl[phenyl)-1-(pyridin-3-ylmethyl)urea]	0.002	–	0.179
O=C(NCc1cccnc1)Nc1ccc(S(=O)(=O)NCc2ccccc2Cl)cc1 [3-(4-{[(2-chlorophenyl)methyl]sulfamoyl}phenyl)-1-(pyridin-3-ylmethyl)urea]	0.003	0.201	–
COc1ccccc1CNS(=O)(=O)c1ccc(NC(=O)NCc2cccnc2)cc1 [3-(4-{[(2-methoxyphenyl)methyl]sulfamoyl}phenyl)-1-(pyridin-3-ylmethyl)urea]	0.008	0.097	–
CN(Cc1cccc(F)c1)S(=O)(=O)c1ccc(NC(=O)NCc2cccnc2)cc1 [3-(4-{[(3-fluorophenyl)methyl](methyl)sulfamoyl}phenyl)-1-(pyridin-3-ylmethyl)urea]	0.002	0.156	–
CN(Cc1ccc(Cl)cc1)S(=O)(=O)c1ccc(NC(=O)NCc2cccnc2)cc1 [3-(4-{[(4-chlorophenyl)methyl](methyl)sulfamoyl}phenyl)-1-(pyridin-3-ylmethyl)urea]	0.002	0.484	–
COc1ccc(CNS(=O)(=O)c2ccc(NC(=O)NCc3cccnc3)cc2)cc1 [3-(4-{[(4-methoxyphenyl)methyl]sulfamoyl}phenyl)-1-(pyridin-3-ylmethyl)urea]	0.016	0.507	–
CCc1ccc(CN(C)S(=O)(=O)c2ccc(NC(=O)NCc3cccnc3)cc2)nc1 [3-(4-{[(5-ethylpyridin-2-yl)methyl](methyl)sulfamoyl}phenyl)-1-(pyridin-3-ylmethyl)urea]	0.005	0.134	–

SMILES	IC50 (NAMPT) [µM]	IC50 (A2780 cells; Homo sapiens, A2780, 72 h) [µM]	IC50 (A2780 cells) [µM]
C[C@@H](c1ccccc1)N(C)S(=O)(=O)c1ccc(NC(=O)NCc2cccnc2)cc1 [3-(4-{methyl[(1S)-1-phenylethyl]sulfamoyl}phenyl)-1-(pyridin-3-ylmethyl)urea]	0.001	0.008	–
O=C(NCc1cccnc1)Nc1ccc(S(=O)(=O)Nc2ccccc2-n2cccc2)cc1 [3-(pyridin-3-ylmethyl)-1-(4-{[2-(1H-pyrrol-1-yl)phenyl]sulfamoyl}phenyl)urea]	0.003	0.076	–
O=C(NCc1cccnc1)Nc1ccc(S(=O)(=O)Nc2ccccc2N2CCCC2)cc1 [3-(pyridin-3-ylmethyl)-1-(4-{[2-(pyrrolidin-1-yl)phenyl]sulfamoyl}phenyl)urea]	0.013	0.011	–
O=C(NCc1cccnc1)Nc1ccc(S(=O)(=O)N2CCc3ncccc3C2)cc1 [3-(pyridin-3-ylmethyl)-1-[4-(5,6,7,8-tetrahydro-1,6-naphthyridine-6-sulfonyl)phenyl]urea]	0.016	0.111	–
O=C(NCc1cccnc1)Nc1ccc(S(=O)(=O)c2cccnc2)cc1 [3-(pyridin-3-ylmethyl)-1-[4-(pyridine-3-sulfonyl)phenyl]urea]	0.005	0.595	–
O=C(NCc1cccnc1)Nc1ccc(S(=O)(=O)c2ccncc2)cc1 [3-(pyridin-3-ylmethyl)-1-[4-(pyridine-4-sulfonyl)phenyl]urea]	0.011	0.488	–
O=C(NCc1cccnc1)Nc1ccc(S(=O)(=O)c2cncnc2)cc1 [3-(pyridin-3-ylmethyl)-1-[4-(pyrimidine-5-sulfonyl)phenyl]urea]	0.02	0.871	–
O=C(NCc1cccnc1)Nc1ccc(S(=O)(=O)c2cnc3ccccc3c2)cc1 [3-(pyridin-3-ylmethyl)-1-[4-(quinoline-3-sulfonyl)phenyl]urea]	0.0028	0.028	–
O=C(NCc1cccnc1)Nc1ccc(S(=O)(=O)c2ccc3ncccc3c2)cc1 [3-(pyridin-3-ylmethyl)-1-[4-(quinoline-6-sulfonyl)phenyl]urea]	0.0027	0.0441	–
O=C(NCc1cccnc1)Nc1ccc(S(=O)(=O)c2cccc3cccnc23)cc1 [3-(pyridin-3-ylmethyl)-1-[4-(quinoline-8-sulfonyl)phenyl]urea]	0.0014	0.0022	–
O=C(NCc1cccnc1)Nc1ccc(S(=O)(=O)c2ccc(C(=O)N3CCCC3)cc2)cc1 [3-(pyridin-3-ylmethyl)-1-[4-({4-[(pyrrolidin-1-yl)carbonyl]benzene}sulfonyl)phenyl]urea]	0.0013	0.0076	–
O=C(NCc1cccnc1)Nc1ccc(S(=O)(=O)N2CCC[C@H](C(=O)N3CCCC3)C2)cc1 [3-(pyridin-3-ylmethyl)-1-{4-[(3S)-3-[(pyrrolidin-1-yl)carbonyl]piperidine-1-sulfonyl]phenyl}urea]	0.009	0.137	–
O=C(NCc1cccnc1)Nc1ccc(S(=O)(=O)Nc2cccc3c2CCCC3)cc1 [3-(pyridin-3-ylmethyl)-1-{4-[(5,6,7,8-tetrahydronaphthalen-1-yl)sulfamoyl]phenyl}urea]	0.0003	0.045	–
O=C(NCc1cccnc1)Nc1ccc(S(=O)(=O)N2CCCCC2)cc1F [3-[2-fluoro-4-(piperidine-1-sulfonyl)phenyl]-1-(pyridin-3-ylmethyl)urea]	0.023	1	–
Cn1ncc2c(S(=O)(=O)c3ccc(NC(=O)NCc4cccnc4)cc3)cccc21 [3-[4-(1-methyl-1H-indazole-4-sulfonyl)phenyl]-1-(pyridin-3-ylmethyl)urea]	0.001	0.0599	–
Cn1ncc2cc(S(=O)(=O)c3ccc(NC(=O)NCc4cccnc4)cc3)ccc21 [3-[4-(1-methyl-1H-indazole-5-sulfonyl)phenyl]-1-(pyridin-3-ylmethyl)urea]	0.0018	0.0925	–
Cn1ncc2ccc(S(=O)(=O)c3ccc(NC(=O)NCc4cccnc4)cc3)cc21 [3-[4-(1-methyl-1H-indazole-6-sulfonyl)phenyl]-1-(pyridin-3-ylmethyl)urea]	0.0025	0.0354	–
Cn1ncc2cccc(S(=O)(=O)c3ccc(NC(=O)NCc4cccnc4)cc3)c21 [3-[4-(1-methyl-1H-indazole-7-sulfonyl)phenyl]-1-(pyridin-3-ylmethyl)urea]	0.0144	0.1 to 1	–
Cn1c(S(=O)(=O)c2ccc(NC(=O)NCc3cccnc3)cc2)cc2ccccc21 [3-[4-(1-methyl-1H-indole-2-sulfonyl)phenyl]-1-(pyridin-3-ylmethyl)urea]	0.003	0.0635	–
CCCn1cc(S(=O)(=O)c2ccc(NC(=O)NCc3cccnc3)cc2)cn1 [3-[4-(1-propyl-1H-pyrazole-4-sulfonyl)phenyl]-1-(pyridin-3-ylmethyl)urea]	0.0063	0.0131	–
